# Test results reported in patent US10844051B2, “Substituted oxazoles for the treatment of cancer” (THE ROYAL INSTITUTION FOR THE ADCANCEMENT OF …, priority 2015, dated 2020).
# Entries after “also recorded” stand apart in the source; their conditions may differ.
# Tests used:
# [1] = biological target: T1, recombinant human KRAS 12D mutant protein (Homo sapiens, UniProt P01116, G12D); assay: SPR analysis on amine-coupled KRAS (G12D mutant); format: binding; details: for Kd: PBS-T containing 1 μM GDP, steady-state
# T1 construct: purchased ORIGENE TP700052
# Method: FIG. 4.1 SPR analysis. Left panels, SPR sensorgrams for compounds 784 and 895 binding to 3500 RU amine-coupled KRAS (G12D mutant) at 25 μL/min in PBS-T containing 1 μM GDP. Right panels, corresponding non-linear regression analyses of steady-state binding responses versus concentration to determine apparent equilibrium dissociation constants (KD).
# Since activation of KRAS leads to activation of NF-kB,^69 we performed in vitro screening of our compounds by KRAS mutant-dependent NF-kB-luc reporter assay in HEK293 cells. […] Also, compounds of the invention are cytotoxic to PANC 10.05 pancreatic cancer cells, H23 NSCLC cells and HCT-116 colorectal cancer cells (FIG. 4.5).
# [2] = system: phosphorylation of ERK in Panc 10.05 cells; assay: Western blot, phosphorylation of ERK in Panc 10.05 cells; format: cell-based; details: designated doses, 24 hours
# Method: (§1) C-PARP, cleaved PARP. Panc10.05 cells were exposed to DMSO vehicle or compounds at designated doses for 24 hours.
# Panc10.05 cells were exposed to DMSO vehicle or compounds at designated doses for 24 hours.
# [3] = system: Panc 10.05 cells; assay: Western blot, apoptosis (cleaved PARP) in Panc 10.05 cells; format: cell-based; details: 24 hours
# Method: as §1
# [4] = system: phosphorylation of ERK in HCT-116 cells; assay: Western blot, phosphorylation of ERK in HCT-116 cells; format: cell-based; details: 10 μM, 24 hours
# Method: HCT-116 cells were exposed to DMSO vehicle or compounds at designated doses for 24 hours.
# [5] = biological target: T2, recombinant protein of human GATA2 (Homo sapiens, UniProt P23769); assay: SPR analysis on amine-coupled GATA2; format: binding; details: 50 μM each
# T2 sequence (P23769 1-480): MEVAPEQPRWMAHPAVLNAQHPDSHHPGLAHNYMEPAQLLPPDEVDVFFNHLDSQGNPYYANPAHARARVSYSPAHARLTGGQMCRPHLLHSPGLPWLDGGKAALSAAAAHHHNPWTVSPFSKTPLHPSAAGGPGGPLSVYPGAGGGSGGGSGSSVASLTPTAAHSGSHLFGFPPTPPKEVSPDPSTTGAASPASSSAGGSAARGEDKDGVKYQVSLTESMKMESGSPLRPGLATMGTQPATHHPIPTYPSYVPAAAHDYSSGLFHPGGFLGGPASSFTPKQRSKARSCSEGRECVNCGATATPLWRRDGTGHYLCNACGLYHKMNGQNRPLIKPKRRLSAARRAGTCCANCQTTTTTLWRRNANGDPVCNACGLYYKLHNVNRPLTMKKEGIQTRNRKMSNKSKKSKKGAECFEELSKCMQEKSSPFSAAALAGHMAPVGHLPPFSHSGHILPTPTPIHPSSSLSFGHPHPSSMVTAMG
# Excerpt: In embodiments of the invention, the androgen-bound AR is regressing GATA2 expression and inhibition of AR via castration or use of antiandrogen releases such expression. […] Overexpression of GATA2 confers resistance to antiandrogen bicalutamide (Bic) (FIG. 2.9). Compound 673 is effective against the LNCaP stably transfected with GATA2-expressing plasmid (referred to as LNCaP-GATA2 cells) (FIG. 2.8).
# [6] = biological target: T3, human STING (hSTING) (Homo sapiens, UniProt Q86WV6); assay: hSTING ISRE-luc reporter assay in 293T cells; format: cell-based; details: 24 hours
# T3 construct: expressed in transfected cells; host or cells: 293T
# Method: ISRE-luc (reporter), pRL-TK (internal control) and hSTING-expressing plasmids were transiently transfected into 293T cells. Cells were exposed to DMSO vehicle control or compounds for 24 hours. Experiments were done in triplicate.
# [7] = biological target: T4, ESE-1 (Homo sapiens, UniProt P78545); assay: ESE-1 dependent reporter assay in HEK293 cells; format: cell-based; details: 48 hours
# T4 construct: expressed in transfected cells; host or cells: HEK293
# T4 sequence (P78545 1-371): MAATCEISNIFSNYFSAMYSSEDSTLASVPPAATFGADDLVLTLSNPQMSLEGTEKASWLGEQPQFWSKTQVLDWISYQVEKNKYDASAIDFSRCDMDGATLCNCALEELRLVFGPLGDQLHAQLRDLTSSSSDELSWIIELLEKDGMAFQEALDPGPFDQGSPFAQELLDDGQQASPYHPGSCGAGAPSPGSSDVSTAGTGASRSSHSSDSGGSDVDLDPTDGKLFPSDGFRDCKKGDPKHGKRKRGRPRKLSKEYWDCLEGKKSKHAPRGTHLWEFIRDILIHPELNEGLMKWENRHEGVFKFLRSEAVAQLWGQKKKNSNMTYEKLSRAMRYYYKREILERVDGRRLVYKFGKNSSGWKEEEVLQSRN
# Method: (§2) HEK293 cells were transiently transfected with empty vector (for the NT) or ERG-expressing plasmid as well as pRL-TK (internal control) and PUx3-Luc reporter. Cells were then exposed to DMSO vehicle or compounds at designated doses for 48 hours. Experiments were done in triplicate.
# Experiments were done as described above in FIG. 1.1a) except that ERG plasmid was replaced by ESE-1 plasmid.
# [8] = system: EZH2, c-Myc and ERG expression in VCaP cells; assay: Expression of EZH2, c-Myc and ERG in VCaP cells; format: cell-based; details: 10 μM, 72 hours
# Method: VCaP cells were exposed to DMSO vehicle control, 648, 698 and 891 at 10 μM for 72 hours in DMEM medium plus 10% FBS or phenol red-free DMEM medium plus 10% charcoal-stripped FBS (CS-FBS).
# [9] = biological target: T5, ERG (Homo sapiens, UniProt P11308); assay: ERG-dependent reporter assay in HEK293 cells; format: cell-based; parameters: expressed in transfected cells; host or cells: HEK293; details: PUx3-Luc reporter, 48 hours, designated doses
# T5 sequence (P11308 1-486 isoform P11308-3): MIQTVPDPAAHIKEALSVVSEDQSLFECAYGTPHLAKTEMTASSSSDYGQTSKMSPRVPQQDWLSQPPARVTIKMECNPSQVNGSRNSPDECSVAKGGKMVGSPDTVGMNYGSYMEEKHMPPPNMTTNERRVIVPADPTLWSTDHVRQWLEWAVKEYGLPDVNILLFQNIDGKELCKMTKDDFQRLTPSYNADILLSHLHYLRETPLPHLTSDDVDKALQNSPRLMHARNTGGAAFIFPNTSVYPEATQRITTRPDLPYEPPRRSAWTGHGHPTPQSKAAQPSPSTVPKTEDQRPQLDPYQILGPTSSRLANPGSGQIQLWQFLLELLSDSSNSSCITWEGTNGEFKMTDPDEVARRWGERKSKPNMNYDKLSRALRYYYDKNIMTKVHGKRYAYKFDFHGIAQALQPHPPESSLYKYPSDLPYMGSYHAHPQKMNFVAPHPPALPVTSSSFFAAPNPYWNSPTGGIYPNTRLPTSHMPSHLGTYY
# Method: as §2
# [10] = biological target: T6, human GATA2 (Homo sapiens, UniProt P23769); assay: GATA2-dependent reporter assay in IHH cells; format: cell-based; details: GATA-Luc reporter, 48 h
# T6 construct: expressed in transfected cells; host or cells: IHH
# T6 sequence (P23769 1-480): T2 sequence (P23769 1-480)
# Method: K7174 is a known GATA2 inhibitor. The IHH cells were transiently transfected with empty vector (for the NT) or human GATA2-expressing plasmid as well as pRL-TK (internal control) and GATA-Luc reporter plasmids. Cells were exposed to DMSO vehicle or compounds for 48 h. Experiments were in triplicate.
# [11] = biological target: T7, human GATA3 (Homo sapiens, UniProt P23771); assay: GATA3-dependent reporter assay in IHH cells; format: cell-based; details: 48 hours, 10 μM
# T7 construct: expressed in transfected cells; host or cells: IHH
# Method: The IHH cells were transiently transfected with empty vector (for the NT) or human GATA3-expressing plasmid as well as pRL-TK (internal control) and GATA-Luc reporter plasmids. Cells were exposed to DMSO vehicle or compounds for 48 hours. Experiments were done in triplicate.
# [12] = biological target: T8, mouse STING (mSTING) (Mus musculus, UniProt Q3TBT3); assay: mSTING ISRE-luc reporter assay in 293T cells; format: cell-based; details: 24 hours
# T8 construct: expressed in transfected cells; host or cells: 293T
# T8 sequence (Q3TBT3 1-378): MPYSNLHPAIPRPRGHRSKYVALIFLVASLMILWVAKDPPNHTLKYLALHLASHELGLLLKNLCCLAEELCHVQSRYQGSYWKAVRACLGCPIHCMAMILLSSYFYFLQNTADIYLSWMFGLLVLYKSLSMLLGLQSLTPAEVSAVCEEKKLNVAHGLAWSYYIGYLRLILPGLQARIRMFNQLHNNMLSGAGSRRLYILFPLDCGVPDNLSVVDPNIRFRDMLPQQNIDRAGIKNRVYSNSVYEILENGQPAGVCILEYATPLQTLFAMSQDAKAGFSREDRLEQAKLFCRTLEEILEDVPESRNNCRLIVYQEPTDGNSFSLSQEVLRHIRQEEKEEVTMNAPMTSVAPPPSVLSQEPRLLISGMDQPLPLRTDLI
# Method: ISRE-luc (reporter), pRL-TK (internal control) and mSTING-expressing plasmids were transiently transfected into 293T cells. Cells were exposed to DMSO vehicle control or compounds for 24 hours. Experiments were done in triplicate.
# [13] = system: interferon signaling pathway in THP-1 cells; assay: Western blot, interferon signaling in THP-1 cells; format: cell-based; details: 16 hours
# Method: THP1 cells were treated for 16 hours with the indicated concentration (μM) of compounds or DMSO vehicle control. Whole-cell extracts were prepared and subjected to Western blot analysis with the antibodies as indicated.
# [14] = system: H23 KRAS-mutant NSCLC cells; assay: MTT assay, H23; format: cell-based; details: endogenous KRAS 12C, 72 hours
# Method: FIG. 2.7 Compound 673 is cytotoxic in KRAS-mutant NSCLC cells (A549 and H23), but is not toxic the KRAS wild-type NSCLC cells (H322). Cells were exposed to vehicle or compounds (μM) for 72 hours. Viable cells were evaluated by MTT assays.
# (§3) Panc 10.05, H23 and HCT-116 cells express endogenous KRAS 12D, 12C and 13D mutants, respectively. Cells were exposed to DMSO vehicle or compounds at designated doses for 72 hours. Experiments were done in triplicate.
# [15] = system: Panc10.05 pancreatic cancer cells; assay: MTT analysis, Panc10.05; format: cell-based; details: endogenous KRAS 12D, 72 hours
# Method: as §3
# [16] = system: HCT-116 colorectal cancer cells; assay: MTT analysis, HCT-116; format: cell-based; details: endogenous KRAS 13D, 72 hours
# Method: as §3
# T1 sequence (P01116 1-188 isoform P01116-2 G12D): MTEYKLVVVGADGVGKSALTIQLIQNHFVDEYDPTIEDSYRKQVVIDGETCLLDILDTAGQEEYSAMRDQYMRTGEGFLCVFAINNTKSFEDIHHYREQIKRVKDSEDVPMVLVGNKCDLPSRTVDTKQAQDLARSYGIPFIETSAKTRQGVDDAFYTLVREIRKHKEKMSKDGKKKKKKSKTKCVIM
# T3 sequence (Q86WV6 whole entry H232R): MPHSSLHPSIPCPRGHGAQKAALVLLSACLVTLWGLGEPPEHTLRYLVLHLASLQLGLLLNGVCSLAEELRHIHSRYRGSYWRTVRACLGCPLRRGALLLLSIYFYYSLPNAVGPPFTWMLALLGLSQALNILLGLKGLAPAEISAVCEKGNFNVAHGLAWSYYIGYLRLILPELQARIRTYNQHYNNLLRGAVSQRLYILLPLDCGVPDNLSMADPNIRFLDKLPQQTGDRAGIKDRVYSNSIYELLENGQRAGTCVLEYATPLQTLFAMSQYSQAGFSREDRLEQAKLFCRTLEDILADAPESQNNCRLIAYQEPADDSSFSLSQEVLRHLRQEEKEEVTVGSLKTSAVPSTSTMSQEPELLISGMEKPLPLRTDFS
# T7 sequence (P23771 whole entry): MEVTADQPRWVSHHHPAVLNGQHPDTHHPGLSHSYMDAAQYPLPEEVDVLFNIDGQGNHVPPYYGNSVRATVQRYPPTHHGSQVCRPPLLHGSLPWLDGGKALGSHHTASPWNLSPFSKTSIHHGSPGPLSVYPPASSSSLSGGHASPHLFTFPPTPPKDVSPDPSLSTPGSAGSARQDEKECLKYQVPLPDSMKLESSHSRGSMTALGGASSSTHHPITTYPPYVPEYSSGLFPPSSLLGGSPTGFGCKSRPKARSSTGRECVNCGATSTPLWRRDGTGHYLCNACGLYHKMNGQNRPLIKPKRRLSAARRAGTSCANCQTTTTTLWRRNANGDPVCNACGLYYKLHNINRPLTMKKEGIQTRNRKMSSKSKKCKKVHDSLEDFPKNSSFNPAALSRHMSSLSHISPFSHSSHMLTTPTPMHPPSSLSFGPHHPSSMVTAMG
smiles,measurement,setting,value
COc1ccc(CC/C(=C/C(=O)N2CCC(O)(c3ccccc3)CC2)c2ccccc2)cc1F [Compound 895],direct binding with KRAS G12D mutant (SPR),[1],Direct binding
same,Kd,[1],45 µM
same,suppression of phosphorylation of ERK (Western blot),[2],dose-dependently suppressed phosphorylation of ERK
same,"induction of apoptosis (cleaved PARP, Western blot)",[3],induced apoptosis
same,suppression of phosphorylation of ERK (Western blot),[4],potently suppressed phosphorylation of ERK
COc1ccc(-c2nc(CCCc3c[nH]c4ccccc34)oc2-c2ccc(OC)cc2)cc1 [Compound 670],binding to amine-coupled GATA2 (SPR),[5],Direct binding; also recorded: Specific binding
same,activation of hSTING in ISRE-luc reporter assay,[6],activate human STING (hSTING)
Oc1ccc(-c2nc(Cc3c[nH]c4ccccc34)oc2-c2ccc(O)cc2)cc1 [Compound 698],ESE-1 inhibition in ESE-1 dependent reporter assay,[7],ESE-1 inhibitors
same,"inhibition of expression of EZH2, c-Myc and ERG",[8],"inhibit expression of EZH2, c-Myc and ERG"
same,activation of hSTING in ISRE-luc reporter assay,[6],activate hSTING
same,ERG inhibition in ERG-dependent reporter assay,[9],ERG inhibitors
Fc1ccccc1CSc1ncnc2c1ncn2C1CCCO1 (stereo not shown) [Compound V131],ESE-1 inhibition in ESE-1 dependent reporter assay,[7],ESE-1 inhibitors
same,ERG inhibition in ERG-dependent reporter assay,[9],potent inhibitor of ERG; also recorded: ERG inhibitors
O=C(Cc1c[nH]c2ccccc12)NCc1nc(-c2ccccc2)c(-c2ccccc2)o1 [Compound 784],GATA2 inhibition in GATA2-dependent reporter assay,[10],GATA2 inhibitors
same,activity against GATA3 in GATA3-dependent reporter assay,[11],inactive against GATA3
same,direct binding with KRAS G12D mutant (SPR),[1],Direct binding
same,Kd,[1],190 µM
same,suppression of phosphorylation of ERK (Western blot),[2],dose-dependently suppressed phosphorylation of ERK
same,"induction of apoptosis (cleaved PARP, Western blot)",[3],induced apoptosis
Fc1cccc(-c2nc(CCc3c[nH]c4ccccc34)oc2-c2cccc(F)c2)c1 [Compound 761],activation of hSTING in ISRE-luc reporter assay,[6],activate human STING (hSTING)
same,activation of mSTING in ISRE-luc reporter assay,[12],activate mouse STING (mSTING)
same,activation of interferon signaling pathway (Western blot),[13],activate interferon signaling pathway
Oc1ccccc1-c1nc(Cc2c[nH]c3ccccc23)oc1-c1ccccc1O [Compound 891],"inhibition of expression of EZH2, c-Myc and ERG",[8],"inhibit expression of EZH2, c-Myc and ERG"
COc1ccc(CC/C(=C/C(=O)N2CCN(c3ccccc3OC)CC2)c2ccccc2)cc1F [Compound 1261],inhibition of proliferation of H23 cells (MTT),[14],dose-dependently inhibit proliferation
same,inhibition of proliferation of Panc10.05 cells (MTT),[15],dose-dependently inhibit proliferation
same,inhibition of proliferation of HCT-116 cells (MTT),[16],dose-dependently inhibit proliferation
O=C(CC(O)(CCc1ccccc1)c1ccccc1)N1CCC(O)(c2ccccc2)CC1 (stereo not shown) [Compound V248],GATA2 inhibition in GATA2-dependent reporter assay,[10],GATA2 inhibitors
same,binding to amine-coupled GATA2 (SPR),[5],Direct binding; also recorded: Specific binding
Fc1cccc(-c2oc(CCCc3c[nH]c4ccccc34)nc2-c2ccco2)c1 [Compound 834],GATA2 inhibition in GATA2-dependent reporter assay,[10],GATA2 inhibitors
same,activation of hSTING in ISRE-luc reporter assay,[6],activate hSTING
same,activation of interferon signaling pathway (Western blot),[13],activate interferon signaling pathway
